Assay results published in patent US9750689B2, “Transdermal silicone gel (silogel) compositions and methods of preparation” (Humco Holding Group, Inc., priority 2013, dated 2017).
Read-outs that look alike come from different tables or passages of the source.

Assay: Percutaneous absorption testing (percent of applied dose that penetrated past the stratum corneum)
From the text: See Jorge, L., et al., Journal of Pain Research, Topical Preparations for Pain Relief—Efficacy and Patient Adherence, Vol. 4, No. 11-24, 2011.

[1] = 2 Hours, eight drugs dissolved together in Salt-Stable LS Advanced
[2] = 4 Hours, eight drugs dissolved together in Salt-Stable LS Advanced
[3] = 8 Hours, eight drugs dissolved together in Salt-Stable LS Advanced
[4] = 12 Hours, eight drugs dissolved together in Salt-Stable LS Advanced
[5] = 24 Hours, eight drugs dissolved together in Salt-Stable LS Advanced
[6] = 32 Hours, eight drugs dissolved together in Salt-Stable LS Advanced
[7] = 48 Hours, eight drugs dissolved together in Salt-Stable LS Advanced

| Compound | Percutaneous Absorption Testing, 2 Hours (2 h) | Percutaneous Absorption Testing, 4 Hours (4 h) | Percutaneous Absorption Testing, 8 Hours (8 h) | Percutaneous Absorption Testing, 12 Hours (12 h) | Percutaneous Absorption Testing, 24 Hours (24 h) | Percutaneous Absorption Testing, 32 Hours (32 h) | Percutaneous Absorption Testing, 48 Hours (48 h) | further results |
| --- | --- | --- | --- | --- | --- | --- | --- | --- |
| NCC(CC(=O)O)c1ccc(Cl)cc1 (stereo not shown) [Baclofen] | 0% | 1% | 2% | 3% | 4% | 5% | 6% | – |
| CCCCN1CCCCC1C(=O)Nc1c(C)cccc1C (stereo not shown) [Bupivacaine] | 0% | 1% | 1% | 2% | 3% | 4% | 4% | – |
| CN(C)CCC=C1c2ccccc2C=Cc2ccccc21 [Cyclobenzaprine] | 0% | 2% | 3% | 5% | 7% | 8% | 10% | – |
| O=C(O)Cc1ccccc1Nc1c(Cl)cccc1Cl [Diclofenac] | 0% | 1% | 4% | 4% | 7% | 10% | 10% | – |
| NCC1(CC(=O)O)CCCCC1 [Gabapentin] | – | – | – | – | – | – | – | Percutaneous Absorption Testing, 2 Hours [1]: 0%; Percutaneous Absorption Testing, 4 Hours [2]: 0%; Percutaneous Absorption Testing, 8 Hours [3]: 1%; Percutaneous Absorption Testing, 12 Hours [4]: 2%; Percutaneous Absorption Testing, 24 Hours [5]: 2%; Percutaneous Absorption Testing, 32 Hours [6]: 3%; Percutaneous Absorption Testing, 48 Hours [7]: 3% |
| CC(C)Cc1ccc(C(C)C(=O)O)cc1 (stereo not shown) [Ibuprofen] | – | – | – | – | – | – | – | Percutaneous Absorption Testing, 2 Hours: 5%; Percutaneous Absorption Testing, 4 Hours: 8%; Percutaneous Absorption Testing, 12 Hours: 20%; Percutaneous Absorption Testing, 24 Hours: 30%; Percutaneous Absorption Testing, 32 Hours: 39%; Percutaneous Absorption Testing, 48 Hours: 39% |
| CNC1(c2ccccc2Cl)CCCCC1=O (stereo not shown) [Ketamine] | – | – | – | – | – | – | – | Percutaneous Absorption Testing, 2 Hours [1]: 4%; Percutaneous Absorption Testing, 4 Hours [2]: 7%; Percutaneous Absorption Testing, 8 Hours [3]: 20%; Percutaneous Absorption Testing, 12 Hours [4]: 25%; Percutaneous Absorption Testing, 24 Hours [5]: 38%; Percutaneous Absorption Testing, 32 Hours [6]: 51%; Percutaneous Absorption Testing, 48 Hours [7]: 51% |
| CC(=O)CCCCn1c(=O)c2c(ncn2C)n(C)c1=O [Pentoxifylline] | 3% | 7% | 26% | 34% | 53% | 71% | 71% | – |
